Reference: ChEMBL document CHEMBL1138400, “Discovery of gamma-secretase inhibitors efficacious in a transgenic animal model of Alzheimer's disease” (Bioorg Med Chem Lett, 2007)

molecular target: Gamma-secretase; assay: Inhibition of gamma-secretase mediated amyloid beta-40 production in HEK293 cell membranes; assay type: cell-based, Homo sapiens; conditions: not given

| Structure (SMILES) | IC50 [nM] |
| --- | --- |
| O=C(OCC1CCCC(c2cc(F)cc(F)c2)N1S(=O)(=O)c1ccc(Cl)cc1)N1CCN(C2CCCCC2)CC1 (racemic) | 36.1 |
| O=C(OC1(C2CCCC(c3cc(F)cc(F)c3)N2S(=O)(=O)c2cc(F)cc(F)c2)CC1)N1CCC(N2CCCCC2)CC1 (racemic) | 3.5 |
| CN1CN(C)C2(CCN(C(=O)OC3(C4CCCC(c5cc(F)cc(F)c5)N4S(=O)(=O)c4ccc(Cl)cc4)CC3)CC2)C1=O (racemic) | 5.3 |
| CC(C)(OC(=O)N1CCC(N2CCCCC2)CC1)C1CCCC(c2cccc(F)c2)N1S(=O)(=O)c1ccc(Cl)cc1 (racemic) | 4.4 |
| CN(c1ccccc1)C1CCN(C(=O)OC2(C3CCCC(c4cccc(F)c4)N3S(=O)(=O)c3ccc(Cl)cc3)CC2)CC1 (racemic) | 15.4 |
| O=C(OC1(C2CCCC(c3cccc(F)c3)N2S(=O)(=O)c2ccc(Cl)cc2)CC1)N1CCC(N2CCCCC2)CC1 (racemic; form 1) | 0.7 |
| O=C(OC[C@H]1CCC[C@@H](c2cc(F)cc(F)c2)N1S(=O)(=O)c1ccc(Cl)cc1)N1CCC2(CC1)C(=O)NCN2c1ccccc1 (racemic) | 152 |
| O=C(OCC1CCCC(c2cccc(F)c2)N1S(=O)(=O)c1ccc(Cl)cc1)N1CCC(N2CCCCC2)CC1 (racemic) | 11.2 |
| O=C(OC1(C2CCCC(c3cc(F)cc(F)c3)N2S(=O)(=O)c2ccc(Cl)cc2)CC1)N1CCN(C2CCCCC2)CC1 (racemic) | 4.2 |
| O=C(OC1([C@H]2CCC[C@@H](c3cc(F)cc(F)c3)N2S(=O)(=O)c2ccc(Cl)cc2)CC1)N1CCC2(CC1)C(=O)NCN2c1ccccc1 (racemic) | 8.5 |
| CCCC1(O)CCN(C(=O)OC2(C3CCCC(c4cccc(F)c4)N3S(=O)(=O)c3ccc(Cl)cc3)CC2)CC1 (racemic) | 4.5 |
| CC(C)N1CCN(C(=O)OC2(C3CCCC(c4cc(F)cc(F)c4)N3S(=O)(=O)c3ccc(Cl)cc3)CC2)CC1 (racemic) | 2.7 |
| C[C@H]1CN(CCO)CCN1C(=O)OC1(C2CCCC(c3cccc(F)c3)N2S(=O)(=O)c2ccc(Cl)cc2)CC1 (mixture of isomers) | 2.1 |
| O=C(OC1(C2CCCC(c3cc(F)cc(F)c3)N2S(=O)(=O)c2ccc(Cl)cc2)CC1)N1CCNCC1 (racemic; form 1) | 7.9 |
| CN(c1ccccc1)C1CCN(C(=O)OCC2CCCC(c3cc(F)cc(F)c3)N2S(=O)(=O)c2ccc(Cl)cc2)CC1 (racemic) | 165 |
| C[C@H]1CN(CC2CC2)CCN1C(=O)OC1(C2CCCC(c3cc(F)cc(F)c3)N2S(=O)(=O)c2ccc(Cl)cc2)CC1 (mixture of isomers) | 6.1 |
| O=C(OC1(C2CCCC(c3cccc(F)c3)N2S(=O)(=O)c2ccc(Cl)cc2)CC1)N1CCN(CCO)CC1 (racemic) | 1.9 |

| Structure (SMILES) | IC50 [nM] |
| --- | --- |
| CCC(CO)NC1CC2CCC(C1)N2C(=O)OC1(C2CCCC(c3cccc(F)c3)N2S(=O)(=O)c2ccc(Cl)cc2)CC1 (racemic) | 5.2 |
| C[C@H]1CN(C(C)(CO)CO)CCN1C(=O)OC1(C2CCCC(c3cccc(F)c3)N2S(=O)(=O)c2ccc(Cl)cc2)CC1 (mixture of isomers) | 0.9 |
| CCN1CCN(C(=O)OC2(C3CCCC(c4cc(F)cc(F)c4)N3S(=O)(=O)c3ccc(Cl)cc3)CC2)CC1 (racemic) | 1.1 |
| Cl.O=C(OC1(C2CCCC(c3cccc(F)c3)N2S(=O)(=O)c2ccc(Cl)cc2)CC1)N1CCC(N2CCCCC2)CC1 (racemic; form 2) | 0.8 |
| O=C(OCC1CCCC(c2cc(F)cc(F)c2)N1S(=O)(=O)c1ccc(Cl)cc1)N1CCNCC1 (racemic) | 74.8 |
| C[C@H]1CNCCN1C(=O)OC1(C2CCCC(c3cc(F)cc(F)c3)N2S(=O)(=O)c2ccc(Cl)cc2)CC1 (mixture of isomers) | 16.8 |
| O=C(OC1(C2CCCC(c3cc(F)cc(F)c3)N2S(=O)(=O)c2cc(F)cc(F)c2)CC1)N1CCN(CCO)CC1 (racemic) | 16.8 |
| Cl.O=C(OC1(C2CCCC(c3cc(F)cc(F)c3)N2S(=O)(=O)c2ccc(Cl)cc2)CC1)N1CCNCC1 (racemic; form 2) | 7.9 |
| O=C(OC1(C2CCCC(c3cccc(F)c3)N2S(=O)(=O)c2ccc(Cl)cc2)CC1)N1CCC(O)(C2CC2)CC1 (racemic) | 3.7 |
| O=C(OC1(C2CCCC(c3cccc(F)c3)N2S(=O)(=O)c2ccc(Cl)cc2)CC1)N1C2CCC1CC(N1CCCCC1)C2 (racemic) | 2.6 |
| CC1CN(C(=O)OC2(C3CCCC(c4cccc(F)c4)N3S(=O)(=O)c3ccc(Cl)cc3)CC2)CC(C)N1 (racemic) | 5.3 |
| O=C(OC1(C2CCCC(c3cccc(F)c3)N2S(=O)(=O)c2ccc(Cl)cc2)CC1)N1C2CCC1CC(N1CC[C@@H](O)C1)C2 (mixture of isomers) | 3.6 |
| CN1CN(C)C2(CCN(C(=O)OCC3CCCC(c4cc(F)cc(F)c4)N3S(=O)(=O)c3ccc(Cl)cc3)CC2)C1=O (racemic) | 26.8 |
| C[C@H]1CN(CC2CC2)CCN1C(=O)OCC1CCCC(c2cc(F)cc(F)c2)N1S(=O)(=O)c1ccc(Cl)cc1 (mixture of isomers) | 110 |
| O=C(OC1(C2CCCC(c3cc(F)cc(F)c3)N2S(=O)(=O)c2ccc(Cl)cc2)CC1)N1CCC(N2CCCCC2)CC1 (racemic) | 0.3 |
| O=C(OC1(C2CCCC(c3cccc(F)c3)N2S(=O)(=O)c2ccc(Cl)cc2)CC1)N1CCC(N2CCC(F)(F)CC2)CC1 (racemic) | 2.3 |

molecular target: Gamma-secretase; assay: Inhibition of gamma-secretase mediated amyloid beta-40 production in HEK293 cells by whole cell-based assay; parameters: species or system Homo sapiens; conditions: not given

| Structure (SMILES) | IC50 [nM] |
| --- | --- |
| O=C(OC1(C2CCCC(c3cc(F)cc(F)c3)N2S(=O)(=O)c2cc(F)cc(F)c2)CC1)N1CCC(N2CCCCC2)CC1 (racemic) | 12.9 |
| CCCC1(O)CCN(C(=O)OC2(C3CCCC(c4cccc(F)c4)N3S(=O)(=O)c3ccc(Cl)cc3)CC2)CC1 (racemic) | 10.7 |
| CC(C)N1CCN(C(=O)OC2(C3CCCC(c4cc(F)cc(F)c4)N3S(=O)(=O)c3ccc(Cl)cc3)CC2)CC1 (racemic) | 17 |
| C[C@H]1CN(CCO)CCN1C(=O)OC1(C2CCCC(c3cccc(F)c3)N2S(=O)(=O)c2ccc(Cl)cc2)CC1 (mixture of isomers) | 28.7 |
| O=C(OC1(C2CCCC(c3cccc(F)c3)N2S(=O)(=O)c2ccc(Cl)cc2)CC1)N1CCN(CCO)CC1 (racemic) | 7 |
| CCC(CO)NC1CC2CCC(C1)N2C(=O)OC1(C2CCCC(c3cccc(F)c3)N2S(=O)(=O)c2ccc(Cl)cc2)CC1 (racemic) | 21.5 |
| C[C@H]1CN(C(C)(CO)CO)CCN1C(=O)OC1(C2CCCC(c3cccc(F)c3)N2S(=O)(=O)c2ccc(Cl)cc2)CC1 (mixture of isomers) | 5.1 |
| CCN1CCN(C(=O)OC2(C3CCCC(c4cc(F)cc(F)c4)N3S(=O)(=O)c3ccc(Cl)cc3)CC2)CC1 (racemic) | 7.5 |
| Cl.O=C(OC1(C2CCCC(c3cccc(F)c3)N2S(=O)(=O)c2ccc(Cl)cc2)CC1)N1CCC(N2CCCCC2)CC1 (racemic; form 2) | 5 |
| C[C@H]1CNCCN1C(=O)OC1(C2CCCC(c3cc(F)cc(F)c3)N2S(=O)(=O)c2ccc(Cl)cc2)CC1 (mixture of isomers) | 154 |
| O=C(OC1(C2CCCC(c3cc(F)cc(F)c3)N2S(=O)(=O)c2cc(F)cc(F)c2)CC1)N1CCN(CCO)CC1 (racemic) | 24.7 |
| Cl.O=C(OC1(C2CCCC(c3cc(F)cc(F)c3)N2S(=O)(=O)c2ccc(Cl)cc2)CC1)N1CCNCC1 (racemic; form 2) | 106 |
| O=C(OC1(C2CCCC(c3cccc(F)c3)N2S(=O)(=O)c2ccc(Cl)cc2)CC1)N1CCC(O)(C2CC2)CC1 (racemic) | 7.7 |
| O=C(OC1(C2CCCC(c3cccc(F)c3)N2S(=O)(=O)c2ccc(Cl)cc2)CC1)N1C2CCC1CC(N1CCCCC1)C2 (racemic) | 9.7 |
| CC1CN(C(=O)OC2(C3CCCC(c4cccc(F)c4)N3S(=O)(=O)c3ccc(Cl)cc3)CC2)CC(C)N1 (racemic) | 120 |
| O=C(OC1(C2CCCC(c3cccc(F)c3)N2S(=O)(=O)c2ccc(Cl)cc2)CC1)N1C2CCC1CC(N1CC[C@@H](O)C1)C2 (mixture of isomers) | 20 |
| O=C(OC1(C2CCCC(c3cc(F)cc(F)c3)N2S(=O)(=O)c2ccc(Cl)cc2)CC1)N1CCC(N2CCCCC2)CC1 (racemic) | 5.8 |
| O=C(OC1(C2CCCC(c3cccc(F)c3)N2S(=O)(=O)c2ccc(Cl)cc2)CC1)N1CCC(N2CCC(F)(F)CC2)CC1 (racemic) | 5.5 |

system: not listed separately; assay: in vivo; conditions: rat, plasma, po, 10 mg/kg
Description: AUC (0 to 6h) in rat at 10 mg/kg, po

| Structure (SMILES) | AUC(0-t) at 6 h [ng·h/mL] |
| --- | --- |
| O=C(OC1(C2CCCC(c3cc(F)cc(F)c3)N2S(=O)(=O)c2cc(F)cc(F)c2)CC1)N1CCC(N2CCCCC2)CC1 (racemic) | 5050 |
| CC(C)(OC(=O)N1CCC(N2CCCCC2)CC1)C1CCCC(c2cccc(F)c2)N1S(=O)(=O)c1ccc(Cl)cc1 (racemic) | 2430 |
| O=C(OCC1CCCC(c2cccc(F)c2)N1S(=O)(=O)c1ccc(Cl)cc1)N1CCC(N2CCCCC2)CC1 (racemic) | 1380 |
| CC(C)N1CCN(C(=O)OC2(C3CCCC(c4cc(F)cc(F)c4)N3S(=O)(=O)c3ccc(Cl)cc3)CC2)CC1 (racemic) | 783 |
| C[C@H]1CN(CCO)CCN1C(=O)OC1(C2CCCC(c3cccc(F)c3)N2S(=O)(=O)c2ccc(Cl)cc2)CC1 (mixture of isomers) | 7210 |
| O=C(OC1(C2CCCC(c3cccc(F)c3)N2S(=O)(=O)c2ccc(Cl)cc2)CC1)N1CCN(CCO)CC1 (racemic) | 2090 |
| CCC(CO)NC1CC2CCC(C1)N2C(=O)OC1(C2CCCC(c3cccc(F)c3)N2S(=O)(=O)c2ccc(Cl)cc2)CC1 (racemic) | 3070 |
| C[C@H]1CN(C(C)(CO)CO)CCN1C(=O)OC1(C2CCCC(c3cccc(F)c3)N2S(=O)(=O)c2ccc(Cl)cc2)CC1 (mixture of isomers) | 1770 |
| CCN1CCN(C(=O)OC2(C3CCCC(c4cc(F)cc(F)c4)N3S(=O)(=O)c3ccc(Cl)cc3)CC2)CC1 (racemic) | 1400 |
| Cl.O=C(OC1(C2CCCC(c3cccc(F)c3)N2S(=O)(=O)c2ccc(Cl)cc2)CC1)N1CCC(N2CCCCC2)CC1 (racemic; form 2) | 802 |
| O=C(OC1(C2CCCC(c3cc(F)cc(F)c3)N2S(=O)(=O)c2cc(F)cc(F)c2)CC1)N1CCN(CCO)CC1 (racemic) | 23100 |
| Cl.O=C(OC1(C2CCCC(c3cc(F)cc(F)c3)N2S(=O)(=O)c2ccc(Cl)cc2)CC1)N1CCNCC1 (racemic; form 2) | 6210 |
| O=C(OC1(C2CCCC(c3cccc(F)c3)N2S(=O)(=O)c2ccc(Cl)cc2)CC1)N1C2CCC1CC(N1CCCCC1)C2 (racemic) | 2880 |
| CC1CN(C(=O)OC2(C3CCCC(c4cccc(F)c4)N3S(=O)(=O)c3ccc(Cl)cc3)CC2)CC(C)N1 (racemic) | 1810 |
| O=C(OC1(C2CCCC(c3cccc(F)c3)N2S(=O)(=O)c2ccc(Cl)cc2)CC1)N1C2CCC1CC(N1CC[C@@H](O)C1)C2 (mixture of isomers) | 2090 |
| O=C(OC1(C2CCCC(c3cc(F)cc(F)c3)N2S(=O)(=O)c2ccc(Cl)cc2)CC1)N1CCC(N2CCCCC2)CC1 (racemic) | 1080 |
| O=C(OC1(C2CCCC(c3cccc(F)c3)N2S(=O)(=O)c2ccc(Cl)cc2)CC1)N1CCC(N2CCC(F)(F)CC2)CC1 (racemic) | 1670 |
